From article PMC4519791, “Functional diversity and properties of multiple xylanases from Penicillium oxalicum GZ-2” (Scientific Reports, 2015)

Experiments:
Type in all cases: biochemical
xyn11B = target: T1, xyn11B (Penicillium oxalicum, UniProt E7EF85); assay: TLC of hydrolysis products; settings: 1 mg/ml substrate, 12 h; 50 mM acetate pH 4.0, 40 °C (Figure 7 legend) or optimal pH, 45 °C (Methods)
T1 construct: gene xynB; mature enzyme, GH11 catalytic domain, Ser/Thr linker and CBM1; pPICZalphaA alpha-factor secretion, 6xHis tag, Pichia pastoris, Ni-NTA

xyn11A = target: T2, xyn11A (Penicillium oxalicum, UniProt U3MZH8); assay: TLC of hydrolysis products; settings: 1 mg/ml substrate, 12 h; 50 mM acetate pH 4.0, 40 °C (Figure 7 legend) or optimal pH, 45 °C (Methods)
T2 construct: GH11 catalytic domain without CBM; 23 kDa by SDS-PAGE; pPICZalphaA alpha-factor secretion, 6xHis tag, Pichia pastoris, Ni-NTA

xyn10B = target: T3, xyn10B (Penicillium oxalicum, UniProt U3MZ77); assay: p-nitrophenyl substrate hydrolysis (specific activity); settings: 10 mM substrate; optimal temperature, pH 5.0
T3 construct: mature enzyme, GH10 catalytic domain, Ser/Thr linker and CBM1; pPICZalphaA alpha-factor secretion, 6xHis tag, Pichia pastoris, Ni-NTA
T3 sequence (U3MZ77 23-410): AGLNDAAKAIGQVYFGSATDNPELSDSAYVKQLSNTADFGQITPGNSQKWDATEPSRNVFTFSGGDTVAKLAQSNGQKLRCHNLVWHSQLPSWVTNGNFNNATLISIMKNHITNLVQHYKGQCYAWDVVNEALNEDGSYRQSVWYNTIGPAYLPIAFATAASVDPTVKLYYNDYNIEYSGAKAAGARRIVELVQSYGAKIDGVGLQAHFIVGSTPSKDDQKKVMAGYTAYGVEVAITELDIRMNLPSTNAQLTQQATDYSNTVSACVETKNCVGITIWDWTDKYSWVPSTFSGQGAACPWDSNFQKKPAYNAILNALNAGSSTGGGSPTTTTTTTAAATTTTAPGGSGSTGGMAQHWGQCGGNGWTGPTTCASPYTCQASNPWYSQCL

xyn10A = target: T4, xyn10A (Penicillium oxalicum, UniProt U3N115); assay: TLC of hydrolysis products; settings: 1 mg/ml substrate, 12 h; 50 mM acetate pH 4.0, 40 °C (Figure 7 legend) or optimal pH, 45 °C (Methods)
T4 construct: mature enzyme, GH10 catalytic domain without CBM; pPICZalphaA alpha-factor secretion, 6xHis tag, Pichia pastoris, Ni-NTA
T4 sequence (U3N115 20-330): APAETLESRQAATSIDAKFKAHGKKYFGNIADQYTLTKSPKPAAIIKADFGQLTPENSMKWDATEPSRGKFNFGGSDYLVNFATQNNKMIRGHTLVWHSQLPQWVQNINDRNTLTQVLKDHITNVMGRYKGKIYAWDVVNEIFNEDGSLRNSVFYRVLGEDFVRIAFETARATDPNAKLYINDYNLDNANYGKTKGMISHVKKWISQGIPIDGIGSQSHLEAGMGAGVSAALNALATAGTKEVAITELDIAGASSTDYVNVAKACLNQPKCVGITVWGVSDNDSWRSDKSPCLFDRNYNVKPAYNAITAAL

T2 sequence (U3MZH8 17-211): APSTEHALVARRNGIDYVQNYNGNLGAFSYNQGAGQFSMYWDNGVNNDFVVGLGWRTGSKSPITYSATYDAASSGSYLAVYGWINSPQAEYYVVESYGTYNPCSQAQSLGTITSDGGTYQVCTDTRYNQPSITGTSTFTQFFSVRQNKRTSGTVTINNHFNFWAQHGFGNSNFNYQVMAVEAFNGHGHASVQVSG
T1 sequence (E7EF85 20-310): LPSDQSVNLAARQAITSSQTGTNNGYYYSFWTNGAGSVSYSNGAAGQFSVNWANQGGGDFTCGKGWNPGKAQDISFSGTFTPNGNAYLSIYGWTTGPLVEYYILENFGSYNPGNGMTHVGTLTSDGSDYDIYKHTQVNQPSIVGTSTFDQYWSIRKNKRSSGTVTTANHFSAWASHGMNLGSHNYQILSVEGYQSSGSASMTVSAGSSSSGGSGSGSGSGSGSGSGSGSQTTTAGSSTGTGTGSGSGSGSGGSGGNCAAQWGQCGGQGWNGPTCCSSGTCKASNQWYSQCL

OC1OC[C@@H](O[C@@H]2OC[C@@H](O[C@@H]3OC[C@@H](O[C@@H]4OC[C@@H](O)[C@H](O)[C@H]4O)[C@H](O)[C@H]3O)[C@H](O)[C@H]2O)[C@H](O)[C@H]1O (some centres unmarked) [X4, xylotetraose]
TLC of hydrolysis products (xyn11B): hydrolytic products obtained with GH11 xylanase (xyn11B) was similar to that of xyn11A
TLC of hydrolysis products (xyn11A): X4, X5 and X6 were hydrolyzed to X2 and X3 through xyn11A

O=[N+]([O-])c1ccc(O[C@@H]2OC[C@@H](O)[C@H](O)[C@H]2O)cc1 [pNPX, p-nitrophenyl-β-D-xylopyranoside]
p-nitrophenyl substrate hydrolysis (specific activity) (xyn10B): Although xyn10B degraded pNPX and pNPC, the other three enzymes were not active

O=[N+]([O-])c1ccc(O[C@@H]2O[C@H](CO)[C@@H](O[C@@H]3O[C@H](CO)[C@@H](O)[C@H](O)[C@H]3O)[C@H](O)[C@H]2O)cc1 [pNPC, p-nitrophenyl β-D-cellobioside]
p-nitrophenyl substrate hydrolysis (specific activity) (xyn10B): Although xyn10B degraded pNPX and pNPC, the other three enzymes were not active

OC1CO[C@@H](OC2CO[C@@H](OC3CO[C@@H](OC4CO[C@@H](OC5CO[C@@H](OC6COC(O)C(O)C6O)C(O)C5O)C(O)C4O)C(O)C3O)C(O)C2O)C(O)C1O (some centres unmarked) [X6, xylohexaose]
TLC of hydrolysis products (xyn11B): hydrolytic products obtained with GH11 xylanase (xyn11B) was similar to that of xyn11A
TLC of hydrolysis products (xyn10A): the two GH10 enzymes rapidly degraded X3, X4, X5 and X6
TLC of hydrolysis products (xyn11A): X4, X5 and X6 were hydrolyzed to X2 and X3 through xyn11A

OC1OC[C@@H](O[C@@H]2OC[C@@H](O[C@@H]3OC[C@@H](O)[C@H](O)[C@H]3O)[C@H](O)[C@H]2O)[C@H](O)[C@H]1O (some centres unmarked) [X3, xylotriose]
TLC of hydrolysis products (xyn10A): the two GH10 enzymes rapidly degraded X3, X4, X5 and X6
